Results taken from US20090131320A1, “PEPTIDES MODULATING THE ACTIVITY OF THE ENGRAILED TRANSCRIPTION FACTOR” (Centre National De La Recherche Scient., priority 2003, published 2009).
Entries after “also recorded” stand apart in the source; their conditions may differ.

B1: Engrailed-2: whole chick Engrailed-2 protein expressed from pCL9mEn2 under the CMV promoter (protein)
chain: MEEGGRSPREEAAEPQESGGDAEPGGGRRALLLPPGDPPHPHPHPHRITNFFIDNILRPEFGRRKEAGGTAGEPRRPGAESRRSPAAAAPAPGAPVPGGGGGGGGGSPGRGEGGPAALALHGAAKKGGDPAALEAALKARGLSGAELSVSSDSDSSQAGSNAGNQPMLWPAWVYCTRYSDRPSSGPRSRKPKKKNPNKEDKRPRTAFTAEQLQRLKAEFQTNRYLTEQRRQSLAQELGLNESQIKIWFQNKRAKIKKATGSKNSLAVHLMAQGLYNHSTTAKDGKSDSE

Key:
MAP1B promoter = MAP1B promoter luciferase reporter (pMAP-luc) in CHP 100 cells, protein or peptide alone; format: cell-based; details: luciferase 24 hours after transfection
Procedure: (§1) The transcriptional activity of Engrailed is evaluated as described by Montesinos et al. (J. Neurosci., 21, 3350-9, 2001), by measuring the expression of the luciferase reporter gene placed in the plasmid pMAP-luc under the control of a promoter that is a target for Engrailed, the MAP1B (microtubule-associated protein 1B) promoter.
(§2) Cells of the neuroepithelial line CHP 100 (Schlesinger et al, Cancer Res. 36, […], 1976) are cultured in RPMI 1640 (Life Technologies, Gaithersburg, Md.) supplemented with 16 mM glucose, 15% fetal calf serum, 5 U/ml of penicillin and 5 μg/ml of streptomycin, and cotransfected by electroporation with pMAP-luc and one of the following vectors:
(§3) pCL9mEn2 (Mainguy et al., Natural Biotechnol. 18: 746-749, 2000) which contains the sequence encoding the whole chick Engrailed-2 protein, under the control of the CMV promoter;
pCL9mEn2ΔH1 (Joliot et al., Curr Biol. 8: 856-863, 1998), which contains the sequence encoding the chick Engrailed-2 protein from which amino acids 36 to 46 of the homeodomain (DNA-binding sequence) have been deleted, under the control of the CMV promoter;
(§4) pCL9 mHDEn2C, which contains the sequence encoding the chick Engrailed-2 protein from which amino acids 10 to 185 have been deleted, under the control of the CMV promoter.
(§5) The electroporation is carried out with a maximum of 10 μg of plasmid DNA (2 μg of reporter plasmid pMAP-luc+variable amounts of En2 expression vector) per 8×10^5 cells in 350 μl of medium, at 1050 μF and at […]. 400 μl of medium are then added and the combination is allowed to stand for 10 min. The cells are then placed in culture, after washing, in two dishes (3.5 cm diameter).
(§6) The luciferase activity is assayed 24 hours after transfection. The cells are rinsed with PBS. Lysis buffer (20 mM Tris/H3PO4, pH 7.8, 10 mM MgCl2, 15% glycerol, 1 mM EDTA, 1% Triton-X 100, 1.25 mM ATP, 10 μg/ml luciferin) is added to the cells. After incubation at 4° C. for 30 min, the luciferase activity is measured by luminometry (Berthold Lumat LB 9501 luminometer).

Engrailed [1] = assay: Effect of peptides on the activity of Engrailed in primary cultures of mesencephalic neurons (pMAP-luc); format: cell-based; details: primary mouse embryonic mesencephalic neurons; for effect on the activation of the MAP1B promoter in neurons: endogenous Engrailed
Procedure: In order to verify the functionality of peptides 1 and 2 in a physiological cellular context, the effect of these peptides was tested in primary cultures of mouse embryonic mesencephalic neurons.
Fragments of mouse mesencephalon (embryonic day 13.5) are incubated at 24° C. for 5 min in trypsin-EDTA, then washed in a phosphate buffer, pH 7.5, supplemented with 33 mM glucose (PBS) and 10% fetal calf serum, and subsequently incubated at 37° C. for 10 min in […] of DnaseI (Sigma, Saint Louis, Mo.). The cells are dissociated mechanically, washed three times with PBS, and placed in culture at a density of 200 000 cells/cm^2, in wells pre-saturated with D,L-poly-ornithine (1.5 μg/ml) and laminin (5 μg/ml). The culture medium (MMS) consists of DMEM/F12 (1/1, Life Technologies, Cergy, France), with 33 mM glucose, 2 mM glutamine, 10 mM HEPES, pH 7.4, 9 mM NaHCO^−3, 5 U/ml of penicillin and 5 μg/ml of streptomycin. Added to MSS are 0.1% of ovalbumin, 25 μg/ml of insulin, 100 μg/ml of transferrin, 20 nM of progesterone, 60 μM of putrescine and 30 nM selenium (M2OV).
The day after the cells were placed in culture, the medium, in each well, is replaced with 600 μl of MSS, without penicillin or streptomycin. 100 μl of the transfection mixture comprising pMAP-luc (0.5 μg) and 0.5 μg of pCS2-pep1 or pCS2-pep2, and 1 mg/ml of Lipofectamine 2000 (Invitrogen) in OPTI-MEM medium (qs 100 μl), mixed beforehand for 20 min at 24° C., are added to each well. The cells are then incubated at 37° C. for 2 h 30 min. The medium is then replaced with M20V.

[2] = biological target: T1, HDEn2C (chick Engrailed-2 protein from which amino acids 10 to 185 have been deleted) (Gallus gallus, UniProt Q05917, DEL10-185); assay: Effect of peptides on activation of the MAP1B promoter by HDEn2C (Engrailed homeodomain) in CHP100 cells (luciferase); format: cell-based; details: HDEn2C + peptide cotransfected
T1 construct: expressed in transfected cells; host or cells: CHP100 neuroepithelial cell line, electroporated with pCL9 mHDEn2C
T1 sequence (Q05917 with tags, fused parts or gaps DEL10-185): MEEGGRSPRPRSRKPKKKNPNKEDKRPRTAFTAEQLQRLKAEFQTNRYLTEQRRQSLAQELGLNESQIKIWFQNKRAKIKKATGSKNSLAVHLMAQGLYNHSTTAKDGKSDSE
Procedure: as §1, §2, §4
as §5, with “The cells are then placed in culture, after washing, in two dishes (3.5 cm diameter).” left out
The luciferase activity is assayed 24 hours after transfection. […] After incubation at 4° C. for 30 min, the luciferase activity is measured by luminometry (Berthold Lumat LB 9501 luminometer). […]

Engrailed [3] = assay: In vivo effect on the transcriptional activity of Engrailed, pMAP-lacZ β-galactosidase reporter in the neural tube of chick embryos; details: chick embryo neural tube HH8-HH10, electroporation, 24 h
Procedure: The effect of pep1 or pep2 on the transcriptional activity of Engrailed was evaluated by measuring the expression of the β-galactosidase reporter gene placed in the plasmid pMAP-lacZ (described by Montesinos et al., 2001, mentioned above) under the control of the MAP1B promoter, in the neural tube of chick embryos at the HH8-HH10 stage.
The vectors pCS2-pep1 or pCS2-pep2, and also the vector pMAP-lacZ vector (each vector is used at a concentration of 1 μg/μl), were introduced by electroporation into the neural tube of chick embryos at the HH8-HH10 stage in accordance with the protocol of Muramatsu et al. (1997), with a BTX ECM 830 electroporator (4 pulses of 25 V and 50 msec) (Genetronics, San Diego, Calif.). The vectors were injected into the neural tube using a micropipette.

[4] = biological target: T2, chick Engrailed-2 protein (Gallus gallus, UniProt Q05917); assay: Effect of peptides on activation of the MAP1B promoter by Engrailed-2 in CHP100 cells (luciferase); format: cell-based; details: for effect on the activation of MAP1B by Engrailed (in words): peptide + En2 cotransfected
T2 construct: expressed in transfected cells; host or cells: CHP100 neuroepithelial cell line, electroporated with pCL9mEn2
T2 sequence (Q05917 1-289): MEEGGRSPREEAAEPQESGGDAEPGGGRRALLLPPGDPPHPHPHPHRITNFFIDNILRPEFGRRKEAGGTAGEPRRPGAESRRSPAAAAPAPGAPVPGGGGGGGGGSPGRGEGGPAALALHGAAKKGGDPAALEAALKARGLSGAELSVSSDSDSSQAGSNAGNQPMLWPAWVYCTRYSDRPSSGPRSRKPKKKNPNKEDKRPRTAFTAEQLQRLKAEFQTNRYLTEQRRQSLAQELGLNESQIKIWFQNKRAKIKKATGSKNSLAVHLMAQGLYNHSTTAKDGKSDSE
Procedure: as §1, §2, §3, §5, §6
The CHP100 cells are cotransfected by electroporation, as defined above, with pMAP-luc (2 μg), pCL9mEn2 or pCL9 mHDEn2C (4 μg) and 4 μg of pCS2-pep1 or pCS2-pep2.

Row | Molecule | activation of the MAP1B promoter by the protein or peptide alone (MAP1B promoter) | activating effect compared with peptide 1 in neurons (Engrailed [1]) | effect on the activation of the MAP1B promoter in neurons (Engrailed [1]) | effect on the activation of MAP1B by the HDEn2C peptide [2] | effect on the activation of the MAP1B promoter in vivo (β-galactosidase) (Engrailed [3]) | effect on the activation of MAP1B by Engrailed (in words) [4] | increase of the activation of MAP1B by Engrailed ([4]; peptide introduced at the same time as Engrailed-2 (4 μg each vector))
1 | HOXA5: another homeodomain protein | activated | – | – | – | – | – | –
2 | WSWNEEVWFPFT [Peptide 2] | no effect | greater than that of peptide 1 | increased | increases the activation | increases the activation | inhibitor; also recorded: inhibitory effect | –
3 | SWWETQLIASSG [Peptide 1] | no action | – | increased | greatly increased | increased | activating effect | approximately 50%
4 | KVWDIRYTTPHA [aOTX2, reference compound] | – | – | – | – | – | does not modify | –
5 | B1 | capable of activating | – | – | – | – | – | –
